Measured values from paper PMC10899790, “A bromodomain-independent mechanism of gene regulation by the BET inhibitor JQ1: direct activation of nuclear receptor PXR” (Nucleic Acids Research, 2023).

Legend:
CMV promoter = assay: CMV-Renilla luciferase reporter; type: cell-based, human; conditions: HepG2, 24 h; fold change relative to DMSO
PXR LBD = target: T1, PXR LBD (Homo sapiens, UniProt O75469); assay: Cellular PXR LBD SRC-1 recruitment assay (NanoBiT); type: cell-based; conditions: HepG2, NanoBiT, 30 min; 100 nM T0901317 or 5 μM other compound
T1 construct: pcDNA3-SmBiT-PXR LBD (residues 139–434); expressed in transfected cells; host or cells: HepG2
T1 sequence (O75469 139-434): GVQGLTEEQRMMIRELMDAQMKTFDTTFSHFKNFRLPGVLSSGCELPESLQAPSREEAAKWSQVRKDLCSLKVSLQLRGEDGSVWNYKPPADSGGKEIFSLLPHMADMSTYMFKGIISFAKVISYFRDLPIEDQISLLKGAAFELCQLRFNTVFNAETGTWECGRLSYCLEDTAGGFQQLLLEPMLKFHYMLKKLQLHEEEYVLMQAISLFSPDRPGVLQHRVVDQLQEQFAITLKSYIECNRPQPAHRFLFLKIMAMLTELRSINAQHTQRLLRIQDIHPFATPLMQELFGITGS
T1 sequence (Q15788 621-765 partner limits assumed): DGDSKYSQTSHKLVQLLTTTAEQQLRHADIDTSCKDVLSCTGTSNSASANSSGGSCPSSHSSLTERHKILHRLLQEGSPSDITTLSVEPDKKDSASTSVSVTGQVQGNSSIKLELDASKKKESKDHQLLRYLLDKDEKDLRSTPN
Experimental: Nano Luciferase Binary Technology (NanoBiT) ([33]) was used to assess the interaction of SRC-1 with PXR LBD in HepG2 cells (Supplementary Figure S4). […] The following day, cells were co-transfected with pcDNA3-SmBiT-PXR LBD (100 ng/well) and pcDNA3-LgBiT-SRC-1 (100 ng/well) using Lipofectamine 3000. Empty vector (pcDNA3, 800 ng/well) was used as carrier DNA due to the low amounts of expression plasmids used. […] After 24 h, 5 μl media containing 2.5% DMSO, 5X Nano-Glo Live Cell Substrate from the Nano-Glo Live Cell Assay System (Promega), and 5× concentration of compound was added, resulting in 0.5% DMSO and either 100 nM T0901317 or 5 μM other compound. The plates were incubated for 30 min at RT, and Nano Luciferase activity was then measured with an EnVision microplate reader.

mouse PXR (mPXR) = target: T2, mouse PXR (mPXR) (Mus musculus, UniProt O54915); conditions: mPXR-transfected HepG2, 24 h; PCN as 100% control
T2 sequence (O54915 1-431): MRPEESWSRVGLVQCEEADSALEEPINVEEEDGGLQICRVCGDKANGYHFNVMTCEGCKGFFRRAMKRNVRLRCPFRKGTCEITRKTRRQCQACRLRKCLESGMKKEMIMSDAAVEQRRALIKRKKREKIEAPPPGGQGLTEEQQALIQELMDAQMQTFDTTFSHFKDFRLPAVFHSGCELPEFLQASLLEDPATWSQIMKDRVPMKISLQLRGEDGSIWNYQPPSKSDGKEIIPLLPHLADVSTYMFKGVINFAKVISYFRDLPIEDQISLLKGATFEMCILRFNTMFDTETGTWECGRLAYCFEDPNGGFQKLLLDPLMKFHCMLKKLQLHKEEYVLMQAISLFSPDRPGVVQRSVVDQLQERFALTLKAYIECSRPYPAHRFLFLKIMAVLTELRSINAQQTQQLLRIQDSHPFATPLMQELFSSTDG
Experimental: (§1) Assays were performed similarly as previously described with minor modifications ([30–32]). HepG2 cells (7.5 × 10^5/well) were plated in six-well tissue culture-treated plates. The following day, cells were co-transfected with pGL3-CYP3A4-luc (2 μg/well), pRL-CMV (200 ng/well) and 100 ng/well of either empty vector (pcDNA3), pcDNA3-FLAG-PXR, pCMV6-mPXR or pGL4.53-PGK-PXR using Lipofectamine 3000 (Thermo Fisher Scientific). Twenty-four hours after transfection, cells were trypsinized and suspended in phenol red-free DMEM (Thermo Fisher Scientific) supplemented with 5% charcoal/dextran-treated FBS (HyClone), and 1 × 10^4 cells/well in 25 μl media were added to white 384-well plates. […] After 24 h, the Dual-Glo Luciferase Assay System (Promega) and EnVision microplate reader (PerkinElmer) were used to measure firefly and Renilla luciferase activities. CMV-driven Renilla luciferase was used as an indicator of general transcriptional modulation by the test compounds and is plotted as fold change (FC) relative to DMSO controls. Assays utilizing pGL4.54[luc2/TK], pGL4.53[luc2/PGK], or pGL4.13[luc2/SV40] were similarly performed and normalized. For the PXR-responsive CYP3A4-luciferase reporter, the measured relative light units (RLU) were normalized for each well using equation (1),
RLUT0901317 represents the measured RLU from wells containing 1 μM T0901317. […]

CYP3A4 = assay: RNA induction in HepaRG: CYP3A4 mRNA (RT-qPCR); conditions: differentiated HepaRG, 24 h
Experimental: Experiments with HepaRG cells were conducted similarly to previously described ([45]), with modifications. HepaRG cells were seeded in collagen-coated 24-well plates at 5 × 10^5 cells/well in HCM. Cells were differentiated for two weeks with HCM containing 2% DMSO. The cells were then treated with the respective chemicals for 24 h in HCM. The final DMSO concentration for the treatment was 0.5%. Total RNA was isolated from cells with Maxwell 16 LEV SimplyRNA Tissue Kits (Promega), and cDNA was generated from 250 ng of RNA with the SuperScript VILO cDNA Synthesis Kit (Thermo Fisher Scientific). Quantitative real-time polymerase chain reaction (RT-qPCR) was conducted with 2 μl of cDNA using TaqMan Fast Advanced Master Mix (Applied Biosystems) in an Applied Biosystems 7500 Fast Real-Time PCR System. TaqMan gene expression assays specific for CYP3A4 (Hs00604506_m1), PXR (Hs01114267_m1), MYC (Hs00153408_m1) and RNA18S (Hs03928990_g1) were purchased from Thermo Fisher Scientific. Fold induction values were calculated according to the 2^−ΔΔCt method, where ΔCt represents the differences in cycle threshold numbers between the target gene and reference gene and ΔΔCt represents the relative change in these differences between the control and treatment groups ([46]). RNA18S was used as the reference gene for relative quantification of all other genes.

human PXR = target: T3, human PXR (Homo sapiens, UniProt O75469); assay: PXR transactivation assay (CYP3A4-luciferase reporter)
T3 sequence (O75469 1-434): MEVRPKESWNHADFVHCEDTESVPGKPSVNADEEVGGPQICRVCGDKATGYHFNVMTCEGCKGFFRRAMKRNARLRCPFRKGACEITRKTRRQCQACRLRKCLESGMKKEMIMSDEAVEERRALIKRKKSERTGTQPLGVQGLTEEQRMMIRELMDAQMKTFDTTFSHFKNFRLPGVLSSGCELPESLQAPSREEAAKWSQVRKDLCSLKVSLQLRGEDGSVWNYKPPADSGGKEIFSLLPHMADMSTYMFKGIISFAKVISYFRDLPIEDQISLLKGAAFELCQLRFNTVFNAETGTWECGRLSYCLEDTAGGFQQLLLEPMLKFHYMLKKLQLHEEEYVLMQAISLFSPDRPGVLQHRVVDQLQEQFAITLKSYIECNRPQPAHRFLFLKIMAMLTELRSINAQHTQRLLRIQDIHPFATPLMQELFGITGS
Experimental: as §1
RLUT0901317 represents the measured RLU from wells containing 1 μM T0901317. For mPXR assays, 5 μM PCN was used in place of T0901317.

Compound: Cc1sc2c(c1C)C(c1ccc(Cl)cc1)=N[C@@H](CC(=O)OC(C)(C)C)c1nnc(C)n1-2 [JQ1, (+)-JQ1]
- CMV-Renilla luciferase reporter expression (CMV promoter): robustly activated Renilla luciferase expression from a CMV promoter
- SRC-1 recruitment to PXR LBD in cells (PXR LBD): JQ1 > birabresib > CPI-203
- activation of CYP3A4-luciferase reporter in the presence of mPXR (mouse PXR (mPXR)): did not activate the CYP3A4-luciferase reporter in the presence of mPXR
- endogenous CYP3A4 mRNA expression (CYP3A4; FC relative to DMSO): modestly induced CYP3A4 mRNA
- endogenous CYP3A4 mRNA expression on co-treatment with SPA70 (CYP3A4; co-treated with SPA70): largely diminished
- activation of CYP3A4-luciferase reporter with PXR expressed from a PGK promoter (human PXR; HepG2, 24 h, PGK-driven PXR): retained activation of the CYP3A4-luciferase reporter
- activation of PXR-responsive CYP3A4-luciferase reporter (human PXR; human): activated the CYP3A4-luciferase reporter with potency comparable to that of the prototypical PXR agonist rifampicin (Figure 2A) but with slightly reduced efficacy
